Reference: the supplement of paper PMC3842684

Experiments:
[1] = tested on: P. falciparum NF54-pfs16-GFP early (I-III) stage gametocytes; conditions: stage: early (I-III) gametocyte; incubation 72 h
Protocol: (§1)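 MMV Malaria Box compounds active in the primary screen were retested in dose-response against P. falciparum NF54-pfs16-GFP early (I-III) or late (IV-V) gametocytes, 72 h, 37 C, viable gametocytes counted by confocal imaging; IC50 from an unconstrained 4-parameter fit. Compounds with no plateau have no IC50 and are left out.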

[2] = tested on: P. falciparum NF54-pfs16-GFP late (IV-V) stage gametocytes; conditions: stage: late (IV-V) gametocyte; incubation 72 h
Protocol: as §1

Row | Compound | IC50, viable gametocyte number [1] [nM] | IC50, viable gametocyte number [2] [nM]
1 | C=CC12CCN(CC1)C(C(O)c1ccnc3ccc(OC)cc13)C2 (stereo unspecified) | 823 | 276
2 | CCCCCCc1cc(O)c2c3c(c(=O)oc2c1)CCC(C)C3 (stereo unspecified) |  | 759
3 | CCOC(=O)c1cn(CC)c2cc(N(C)CCc3ccc(OC)c(OC)c3)c(F)cc2c1=O |  | 574
4 | Cc1ccc(Nc2nc(-c3ccccn3)cs2)cc1 | 461 | 231
5 | CSC1=NC(=Nc2c(C)cccc2C)C2(CCC(C(C)(C)C)CC2)N1c1ccc(Cl)cc1 (stereo unspecified) |  | 592
6 | Cc1ccc2c(C)nc(Nc3nc(C)cc(-c4ccccc4)n3)nc2c1 |  | 673
7 | CC1CC2=C(CC1CNCCCN(C)C)C(C)(C)CCC2 (stereo unspecified) |  | 541
8 | CCOC(=O)C1=C(C)N=c2sc(=Cc3cc(Cl)ccc3O)c(=O)n2C1c1ccc(OC)cc1 (stereo unspecified) | 359 | 228
9 | COc1cccc(O)c1CN1CCC2(CCCN(Cc3ccc(F)cc3)C2)C1 (stereo unspecified) |  | 899
10 | FC(F)(F)c1cccc(Nc2nc3ccccc3nc2Nc2cccc(C(F)(F)F)c2)c1 | 1310 | 416
11 | COC(=O)c1ccc(C2C3=C(O)CC(c4ccc(F)cc4)CC3=Nc3ccccc3N2C(=O)c2ccccc2)cc1 (stereo unspecified) |  | 1130
12 | Oc1ccc(-c2nc(-c3ccc4oc5ccc(-c6[nH]c(-c7ccc(O)cc7)nc6-c6ccccc6)cc5c4c3)c(-c3ccccc3)[nH]2)cc1 | 699 | 
13 | CC1CCCCN1CCCNC(=O)c1ccc2c(c1)sc1nc(-c3ccc(F)cc3)cn12 (stereo unspecified) | 1790 | 
14 | CCN(CC)CCNc1ccnc2cc3ccccc3cc12 | 1710 | 
15 | OC(CNC1CCCCC1)Cn1c2ccccc2c2ccccc21 (stereo unspecified) |  | 897
16 | CN(C)c1ccc(C=Cc2nc(=O)c3ccccc3o2)cc1 |  | 936
17 | CN(C)c1ccc(C(O)(c2ccc(N(C)C)cc2)c2ccc(N(C)C)cc2)cc1 | 769 | 315
18 | COc1ccc(-c2nc3cc(Cc4ccc5[nH]c(-c6ccc(OC)cc6)nc5c4)ccc3[nH]2)cc1 | 949 | 1110
19 | COc1ccc(C2c3ccc4ccccc4c3Oc3ncn(CCCN(C)C)c(=N)c32)cc1 (stereo unspecified) |  | 1060
20 | Cc1sc2ncnc(Sc3nc4ccccc4[nH]3)c2c1C | 1140 | 324
21 | Nc1ccc(-c2nc3cc(Cc4ccc5[nH]c(-c6ccc(N)cc6)nc5c4)ccc3[nH]2)cc1 |  | 1100
22 | Cc1cc(Nc2ccc(OCc3ccccc3)cc2)nc2cc(O)ccc12 |  | 784
23 | Cc1cccc(-n2ncc3c(=O)[nH]c(-n4nc(C)cc4NC(=O)c4cc5ccccc5o4)nc32)c1 |  | 1090
24 | CCc1ccc(Nc2cc(C)c3ccc(O)cc3n2)cc1 |  | 1270

Row | Compound | IC50, viable gametocyte number [1] [nM] | IC50, viable gametocyte number [2] [nM]
25 | OC1=C2C(=Nc3ccccc3SC2c2ccc(Br)cc2)c2ccccc21 (stereo unspecified) |  | 875
26 | COc1ccc(NC(=O)C2c3ccccc3C(=O)N(CC(C)C)C2c2cccs2)cc1Cl (stereo unspecified) |  | 596
27 | Brc1ccc(Nc2nc3ccccc3nc2Nc2ccc(Br)cc2)cc1 |  | 948
28 | COc1ccc(C=C2SC(Nc3ccc(F)cc3)=NC2=O)c(OC)c1 |  | 892
29 | CN1CCN(c2ccc(Nc3c4ccccc4nc4ccccc34)cc2)CC1 | 1110 | 1360
30 | CC1=C(CC(=O)c2cccc([N+](=O)[O-])c2)C(=O)c2ccccc2C1=O | 1160 | 745
31 | COc1ccc(C(C)=O)cc1N1C(=O)C2C(C1=O)C1(c3ccccc3)C(=O)C2(c2ccccc2)C(c2ccc(C)cc2)=C1c1ccc(C)cc1 (stereo unspecified) |  | 826
32 | CCOC(=O)c1c(NC(=O)c2ccccc2)sc2c(O)c(CN(CC)CC)ccc12 | 810 | 371
33 | CCOc1ccccc1CN1CCc2nc3cc(C(C)(C)C)nn3c(O)c2C1 |  | 1590
34 | O=c1cc(NC2CCN(CCCc3ccccc3)CC2)c2cc(Cl)ccc2o1 | 1310 | 
35 | CN(C)CCCNc1c2ccccc2nc2ccccc12 | 1440 | 703
36 | Clc1cc(Br)ccc1-c1ccc(CNCC2CCNCC2)o1 | 824 | 692
37 | CCCCCCc1cc2cc(-c3csc(C=Cc4ccccc4)n3)c(=O)oc2cc1O | 830 | 594
38 | CCOC(=O)c1cnc2ccc(CC)cc2c1O |  | 253
39 | CCOC(=O)C1=C(C)N=c2sc(=Cc3ccccc3O)c(=O)n2C1c1ccc(OC)c2ccccc12 (stereo unspecified) |  | 1080
40 | CCOC(=O)c1cn(CC)c2cc(N3CCCCC3)c(F)cc2c1=O |  | 337
41 | COc1ccc(C2=C(c3ccc(OC)cc3)C3(c4ccccc4)C(=O)C2(c2ccccc2)C2C(=O)N(c4ccc(C)cc4)C(=O)C23)cc1 (stereo unspecified) |  | 333
42 | COc1ccc(C(=O)C(CCC(CNC(C)(C)C)C(=O)c2ccc(OC)cc2)CNC(C)(C)C)cc1 (stereo unspecified) |  | 1090
43 | Cn1c(=O)n(C)c2cc(CNCCNc3ccnc4cc(Cl)ccc34)ccc21 | 588 | 
44 | COc1ccc(-c2nc(N3CCN(C(=O)C4CCCCC4)CC3)c3c4c(sc3n2)CCCC4)cc1 |  | 1290
45 | COc1ccc(C2NCCc3c2[nH]c2ccccc32)cc1CN1CCN(c2ccc(F)cc2)CC1 (stereo unspecified) |  | 1170
46 | CSc1ccccc1C(=O)Nc1nc(-c2ccccn2)cs1 |  | 781
47 | CNCCCNc1ccnc2cc(Cl)ccc12 | 274 | 310
48 | CCCCCCc1cc2cc(-c3nc4ccccc4[nH]3)c(=Nc3ccccc3C)oc2cc1O | 819 | 465

Row | Compound | IC50, viable gametocyte number [1] [nM] | IC50, viable gametocyte number [2] [nM]
49 | O=C1c2ccccc2C2=Nc3ccccc3SC(c3cccc(F)c3)C12 (stereo unspecified) |  | 733
50 | Cc1ccc(-c2cc3c(nn2)-c2ccccc2C3=O)cc1 |  | 603
51 | OC(CNC1CCCCC1)Cn1c2ccc(I)cc2c2cc(I)ccc21 (stereo unspecified) | 252 | 63
52 | Cc1ccc(N2C3c4ccccc4N(S(=O)(=O)c4ccc(C)cc4)C2c2ccccc2N3S(=O)(=O)c2ccc(C)cc2)cc1 | 1180 | 208
53 | CC(C)(C)c1ccc(O)c(CNC2CCCCC2)c1 | 712 | 382
54 | Oc1ccccc1CNCC12CC3CC(CC(C3)C1)C2 | 891 | 415
55 | COc1ccc(C(=O)NC(c2ccc(Cl)cc2Cl)c2cc(Cl)c3cccnc3c2O)cc1 (stereo unspecified) |  | 1080
56 | CCCCCCn1c(=N)n(CC(O)COc2cccc(C)c2)c2ccccc21 (stereo unspecified) |  | 1610
57 | Oc1ccccc1CN1CCC2(CCCN(Cc3ccccc3F)C2)C1 (stereo unspecified) | 1360 | 673
58 | CCCc1cc(O)c2c3c(c(=O)oc2c1)CN(C)CC3 |  | 591
59 | c1ccc(Cn2c(N=Nc3c(Nc4ccccc4)ccc4ccccc34)nc3ccccc32)cc1 |  | 184
60 | CCCOCc1cc(CN2CCN(c3cccc(Cl)c3)CC2)c(O)c2ncccc12 |  | 584
61 | COc1ccc(Nc2nc(NCc3ccccc3)c3ccccc3n2)cc1 | 1480 | 
62 | CC(C)(C)c1ccc2c(c1)CN(Cc1ccc(Cl)cc1)CO2 |  | 920
63 | CCN(CC)CCn1c(=N)n(CC(O)c2ccc(Cl)c(Cl)c2)c2ccccc21 (stereo unspecified) | 1440 | 1090
64 | COc1cc2c(cc1OC)C1=NNC(=O)C1=NC(C)(C)C2 |  | 1040
65 | CC(C)CCNCC(O)Cn1c2ccccc2c2ccccc21 (stereo unspecified) |  | 1170
66 | COc1ccc2c(=O)cc(C(Cl)(Cl)Cl)oc2c1 | 1210 | 
67 | Oc1ccccc1CN1CCN(C(c2ccccc2)c2ccccc2)CC1 |  | 1320
68 | COc1cccc(C=Cc2nc(=O)c3ccccc3o2)c1OC |  | 438
69 | OCCNc1nc(Nc2ccc(Cl)c(Cl)c2)nc2ccccc12 |  | 1350
70 | CCN(CC)CCNc1ccnc2cc(Cl)ccc12 | 1020 | 
